Consider nine compounds from patent US9969723B2, “3-(4-(benzyloxy)phenyl)hex-4-ynoic acid derivative, method of preparing same and pharmaceutical composition for preventing and treating metabolic disease including same as effective ingredient” (HYUNDAI PHARM CO., LTD, priority 2014, dated 2018).

The structures appear in SMILES notation. Like-named read-outs stand apart in the source and are kept apart here. Where only a bound is given, the exact number is not on record here.

The target in one series is CYP2C19 (Homo sapiens (Human), UniProt P33261). Nature of the series: CYP inhibition (BD GENTEST kit). Format: in vitro ADME. Particulars: pH 7.4, read-out: CYP inhibition (%) 2C19. The method, then:
(§1) CYP is the enzyme involved in drug metabolism. So, the inhibition of this enzyme can change the prediction of dose of a drug and toxicity caused by the co-treatment with other drugs. Therefore, the inventors measured the inhibitory effect of the compounds of Examples of the invention on endogenous CYP3A4, CYP2C9, CYP1A2, CYP2D6, and CYP2C19. […] To prepare the Invitrogen kit, the test sample was diluted in distilled water at 2.5× of the final experimental concentration.
(§2) The test sample for BD GENTEST kit was diluted in acetonitrile at 50× of the final experimental concentration. NADPH-coenzyme mixture was prepared by diluting the coenzyme, G6PDH, and regulatory protein included in the kit with distilled water at the concentration instructed by the kit. The prepared 50× sample (4 μL) and the NADPH-coenzyme mixture (96 μL) were mixed in each well of U-bottom 96-well plate, followed by pre-culture for 10 minutes in a 37° C. incubator. Enzyme/substrate mixed solution was prepared by diluting the buffer (0.5 M potassium phosphate, pH 7.4), each CYP450 enzyme/substrate mixed solution included in the kit with distilled water at the instructed concentration. Upon completion of the pre-culture, 100 μL of the enzyme/substrate mixed solution was added in each well of the plate, followed by culture in a 37° C. incubator for 15 minutes (CYP 1A2), 30 minutes (CYP 3A4 and CYP 2C19) or 1 and half hours (CYP 2C9). […] The values obtained above were converted into % as the inhibition rate of the sample by the value of the non-treated group.

In another series the target is CYP2C9 (Homo sapiens (Human), UniProt P11712). Kind of series: CYP inhibition (BD GENTEST kit). Format: in vitro ADME. Conditions: pH 7.4, read-out: CYP inhibition (%) 2C9. The method, then: as §1, §2
CYP2C9, sequence (P11712 whole entry): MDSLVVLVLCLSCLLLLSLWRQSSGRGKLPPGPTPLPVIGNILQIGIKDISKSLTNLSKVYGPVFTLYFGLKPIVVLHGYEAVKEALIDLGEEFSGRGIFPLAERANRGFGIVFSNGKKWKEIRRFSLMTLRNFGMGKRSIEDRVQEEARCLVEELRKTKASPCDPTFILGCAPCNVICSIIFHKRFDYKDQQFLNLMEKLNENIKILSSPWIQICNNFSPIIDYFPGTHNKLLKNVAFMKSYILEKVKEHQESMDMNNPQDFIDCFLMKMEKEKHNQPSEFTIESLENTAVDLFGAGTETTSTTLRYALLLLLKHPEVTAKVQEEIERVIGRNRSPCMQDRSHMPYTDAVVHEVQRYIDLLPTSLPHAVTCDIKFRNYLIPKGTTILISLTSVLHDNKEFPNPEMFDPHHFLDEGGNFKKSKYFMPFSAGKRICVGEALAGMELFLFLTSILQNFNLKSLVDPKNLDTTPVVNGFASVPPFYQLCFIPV
Another series concerns the target CYP1A2 (Homo sapiens (Human), UniProt P05177). Kind of series: CYP inhibition (BD GENTEST kit). The class given is in vitro ADME. Conditions: pH 7.4. The method, then:
as §1, §2

The target of the next series is CYP2D6 (Homo sapiens (Human), UniProt P10635). Nature of the series: CYP inhibition (Invitrogen Vivid kit). Conditions: probe Vivid CYP450 substrate, read-out: CYP inhibition (%) 2D6. Format: in vitro ADME. From the text: (§3) CYP is the enzyme involved in drug metabolism. So, the inhibition of this enzyme can change the prediction of dose of a drug and toxicity caused by the co-treatment with other drugs. Therefore, the inventors measured the inhibitory effect of the compounds of Examples of the invention on endogenous CYP3A4, CYP2C9, CYP1A2, CYP2D6, and CYP2C19. At this time, Invitrogen (P2862) was used as the CYP2D6 inhibition kit, and BD GENTEST (459100, 459300, 459400, 459500) was used as the CYP1A2, CYP2C9, CYP2C19, and CYP3A4 inhibition kit. To prepare the Invitrogen kit, the test sample was diluted in distilled water at 2.5× of the final experimental concentration.
CYP2D6, sequence (P10635 whole entry): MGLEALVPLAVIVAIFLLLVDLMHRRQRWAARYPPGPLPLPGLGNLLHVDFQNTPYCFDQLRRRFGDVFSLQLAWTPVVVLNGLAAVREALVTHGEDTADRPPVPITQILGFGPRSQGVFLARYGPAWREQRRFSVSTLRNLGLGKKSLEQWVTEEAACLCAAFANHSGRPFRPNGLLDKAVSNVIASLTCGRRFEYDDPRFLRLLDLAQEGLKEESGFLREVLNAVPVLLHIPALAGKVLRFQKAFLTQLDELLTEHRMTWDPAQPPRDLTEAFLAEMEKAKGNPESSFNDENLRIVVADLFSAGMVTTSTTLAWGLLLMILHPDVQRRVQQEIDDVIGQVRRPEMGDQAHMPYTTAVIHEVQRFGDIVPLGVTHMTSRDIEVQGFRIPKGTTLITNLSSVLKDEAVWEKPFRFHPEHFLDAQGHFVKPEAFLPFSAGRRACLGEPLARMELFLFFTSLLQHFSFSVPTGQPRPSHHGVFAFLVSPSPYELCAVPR
P450 BACULOSOMES® reagent and reproducer (100×) included in Invitrogen kit were diluted in Vivid® CYP450 reaction buffer (2×) at the concentration that matched the target CYP450. The prepared 2.5× sample (80 μL) and the diluted P450 BACULOSOMES® reagent mixture (100 μL) were mixed in each well of U-bottom 96-well plate, followed by pre-culture for 20 minutes. Vivid® CYP450 substrate and NADP+ (100×) were diluted in Vivid® CYP450 reaction buffer (2×) at the concentration that matched the target CYP450 and the substrate. Upon completion of the pre-culture, substrate-NADP (nicotinamide adenine dinucleotide phosphate) mixed solution (20 μL) was added thereto, followed by reaction for 1 hour. Upon completion of the reaction, the reactant was transferred onto the white plate, and then fluorescence was measured with a microplate reader (CYP 2D6 excitation wavelength: 400 nm, absorption wavelength: 502 nm). […]

Another series addresses CYP3A4 (Homo sapiens (Human), UniProt P08684). Kind of series: CYP inhibition (BD GENTEST kit). The class given is in vitro ADME. Conditions: pH 7.4, read-out: CYP inhibition (%) 3A4.
Excerpt: as §3
The test sample for BD GENTEST kit was diluted in acetonitrile at 50× of the final experimental concentration. NADPH-coenzyme mixture was prepared by diluting the coenzyme, G6PDH, and regulatory protein included in the kit with distilled water at the concentration instructed by the kit. The prepared 50× sample (4 μL) and the NADPH-coenzyme mixture (96 μL) were mixed in each well of U-bottom 96-well plate, followed by pre-culture for 10 minutes in a 37° C. incubator. Enzyme/substrate mixed solution was prepared by diluting the buffer (0.5 M potassium phosphate, pH 7.4), each CYP450 enzyme/substrate mixed solution included in the kit with distilled water at the instructed concentration. Upon completion of the pre-culture, 100 μL of the enzyme/substrate mixed solution was added in each well of the plate, followed by culture in a 37° C. incubator for 15 minutes (CYP 1A2), 30 minutes (CYP 3A4 and CYP 2C19) or 1 and half hours (CYP 2C9). Upon completion of the reaction, the reactant was transferred onto the white plate, and then fluorescence was measured with a microplate reader (CYP 1A2 and CYP 2C19 excitation wavelength: 410 nm, absorption wavelength: 460 nm; CYP 2C9 and CYP 3A4 excitation wavelength: 409 nm, absorption wavelength: 530 nm). The values obtained above were converted into % as the inhibition rate of the sample by the value of the non-treated group.

A further series addresses GPR40 (Homo sapiens (Human), UniProt O14842). Kind of series: GPR40 protein activity by intracellular calcium concentration (Fluo-4, Flexstation 3) in transfected HEK-293 cells. Format: cell-based. Conditions: HEK-293 cells transfected with human GPR40, intracellular calcium. The method, then:
The GPR40 protein activity according to the novel 3-(4-(benzyloxy)phenyl)hex-4-inoic acid derivative of the present invention was measured by investigating the changes in intracellular calcium concentration affected by the GRP40 activation. First, HEK-293 cells were transfected with human GPR40 DNA (Origene, RC218370) by using Fugene HD (Promega, E2311). […] 24 hours later, the cell culture medium was replaced with Dulbecco's Modified Eagle Medium (DMEM, 50 μl/well) supplemented with 1% fetal bovine serum (FBS). To measure the calcium concentration, 50 μl of Fluo-4 reagent (Invitrogen, F10471) was added to each well, followed by culture in a 37° C. incubator for 2 hours. […] 2 hours after the culture began, those prepared samples were automatically injected to the cells by using Flexstation 3 (Molecular Devices). Then, intracellular calcium concentration was measured for 120 seconds by using SoftMax® Pro software. At this time, dimethylsulfoxide (DMSO) was injected to the cells for the non-treated group, followed by measuring the calcium concentration therein. The GPR40 protein activity was calculated by the below mathematical formula 1 with the results of calcium concentration measurement. GPR40 activity=(intracellular calcium concentration increased by the sample)/(intracellular calcium concentration of the non-treated group)×100 [Mathematical Formula 1]

The mark [1] stands for this setting: CYP2C19 enzyme of BD GENTEST inhibition kit.
[2] abbreviates: CYP2C9 enzyme of BD GENTEST inhibition kit.
Setting [3] is: P450 BACULOSOMES reagent (Invitrogen Vivid CYP2D6 kit P2862).
[4] abbreviates: CYP3A4 enzyme of BD GENTEST inhibition kit.
Where [5] appears, read: CYP2C19 enzyme of the BD GENTEST CYP2C19 inhibition kit.
The mark [6] stands for this setting: CYP2C9 enzyme of the BD GENTEST CYP2C9 inhibition kit.
[7] abbreviates: CYP2D6 P450 BACULOSOMES reagent (Invitrogen kit P2862).
Setting [8] is: CYP3A4 enzyme of the BD GENTEST CYP3A4 inhibition kit.

GPR40, sequence (O14842 whole entry): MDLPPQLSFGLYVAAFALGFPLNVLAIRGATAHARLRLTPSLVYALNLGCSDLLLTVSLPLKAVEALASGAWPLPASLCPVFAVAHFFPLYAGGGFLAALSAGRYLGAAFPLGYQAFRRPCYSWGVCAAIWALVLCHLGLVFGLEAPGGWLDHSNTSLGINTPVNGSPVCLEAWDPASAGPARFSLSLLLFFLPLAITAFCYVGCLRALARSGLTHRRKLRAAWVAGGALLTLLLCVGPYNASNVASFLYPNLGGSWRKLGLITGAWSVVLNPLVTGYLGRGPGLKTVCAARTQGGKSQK
CYP3A4, sequence (P08684 whole entry): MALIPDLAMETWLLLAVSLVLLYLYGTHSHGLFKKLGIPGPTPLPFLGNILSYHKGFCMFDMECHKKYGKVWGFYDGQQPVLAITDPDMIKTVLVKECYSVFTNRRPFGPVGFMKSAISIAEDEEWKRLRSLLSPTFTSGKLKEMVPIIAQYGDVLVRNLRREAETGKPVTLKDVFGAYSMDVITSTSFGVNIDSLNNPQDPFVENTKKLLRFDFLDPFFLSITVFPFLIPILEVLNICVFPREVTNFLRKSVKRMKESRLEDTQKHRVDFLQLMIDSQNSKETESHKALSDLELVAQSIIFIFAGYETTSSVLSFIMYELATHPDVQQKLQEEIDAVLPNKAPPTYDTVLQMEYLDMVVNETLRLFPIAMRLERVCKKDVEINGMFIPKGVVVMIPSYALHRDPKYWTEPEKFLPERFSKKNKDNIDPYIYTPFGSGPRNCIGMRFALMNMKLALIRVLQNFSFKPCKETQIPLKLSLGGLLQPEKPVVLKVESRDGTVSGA
CYP2C19, sequence (P33261 whole entry): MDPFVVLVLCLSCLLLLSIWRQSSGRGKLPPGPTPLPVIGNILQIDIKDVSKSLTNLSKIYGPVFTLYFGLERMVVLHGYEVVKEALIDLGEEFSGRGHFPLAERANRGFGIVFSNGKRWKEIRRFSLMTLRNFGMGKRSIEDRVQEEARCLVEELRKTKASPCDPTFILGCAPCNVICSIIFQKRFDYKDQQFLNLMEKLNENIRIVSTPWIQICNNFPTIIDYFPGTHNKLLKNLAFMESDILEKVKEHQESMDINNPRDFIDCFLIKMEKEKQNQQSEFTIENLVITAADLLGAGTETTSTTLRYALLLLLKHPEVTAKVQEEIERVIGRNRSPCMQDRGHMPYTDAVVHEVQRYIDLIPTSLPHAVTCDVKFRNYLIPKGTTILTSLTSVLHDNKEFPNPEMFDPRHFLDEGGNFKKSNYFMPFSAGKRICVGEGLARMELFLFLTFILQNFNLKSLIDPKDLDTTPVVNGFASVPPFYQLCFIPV
CYP1A2, sequence (P05177 whole entry): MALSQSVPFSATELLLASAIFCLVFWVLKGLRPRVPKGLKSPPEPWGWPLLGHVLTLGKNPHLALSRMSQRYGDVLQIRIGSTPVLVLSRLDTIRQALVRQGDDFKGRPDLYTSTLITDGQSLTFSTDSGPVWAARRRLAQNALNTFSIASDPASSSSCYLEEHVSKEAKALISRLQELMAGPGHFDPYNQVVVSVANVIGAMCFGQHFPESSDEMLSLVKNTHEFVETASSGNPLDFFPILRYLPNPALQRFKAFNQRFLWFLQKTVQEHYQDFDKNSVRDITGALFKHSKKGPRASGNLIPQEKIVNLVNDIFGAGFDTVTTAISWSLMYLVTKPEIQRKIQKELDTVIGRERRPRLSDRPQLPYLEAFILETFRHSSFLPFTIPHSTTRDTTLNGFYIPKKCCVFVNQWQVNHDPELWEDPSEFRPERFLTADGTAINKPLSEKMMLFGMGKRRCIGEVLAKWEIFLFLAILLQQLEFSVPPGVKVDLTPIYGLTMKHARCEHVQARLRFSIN

One may read the inhibition as how much of the control response was suppressed. With `CC#C[C@@H](CC(=O)O)c1ccc(OCc2ccc(CN3CCC4(C=Cc5ccccc54)CC3)cc2)cc1` [Comparative Example 2, (3S)-3-(4-{[4-(1′H-spiro[indene-1,4′-piperidine]-1′-ylmethyl)benzyl]oxy}phenyl)hex-4-inoic acid, reference compound], the inhibition at 30 min, 10 µM at CYP2C19 (setting [1]) came to 34.5%; on CYP3A4 (setting [4]) it was 42%. The inhibition at 1.5 h, 10 µM at CYP2C9 (setting [2]) is 43.9%. This compound also came in with an inhibition at 15 min, 10 µM on CYP1A2 of 0%. In addition, the inhibition at 1 h, 10 µM on CYP2D6 (setting [3]) stood at 63.2%. Besides, the EC50 at GPR40 (read-out: EC50) was above 300 nM.
Turning to `CC#CC(CC(=O)O)c1ccc(OCc2ccc(C3=CCC4(CC3)OCCO4)cc2)cc1` (stereo not drawn) [Example 3], the inhibition at 30 min, 10 µM at CYP2C19 (setting [5]) is 19.4%; on CYP3A4 (setting [8]) it was 33.1%. Moreover, at CYP2C9 (setting [6]), the inhibition at 1.5 h, 10 µM worked out at 21.1%. Further, the inhibition at 15 min, 10 µM against CYP1A2 was 0%. In addition, on CYP2D6 (setting [7]), the inhibition at 1 h, 10 µM amounted to 6%. Moreover, on GPR40 (read-out: EC50), the EC50 is above 300 nM.
As to `CC#CC(CC(=O)O)c1ccc(OCc2cccc(C3=CCC(=O)CC3)c2)cc1` (stereo not drawn) [Example 4, 3-(4-(3-(4-oxocyclohex-1-enyl)benzyloxy)phenyl)hex-4-ynoic acid], the inhibition at 30 min, 10 µM on CYP2C19 (setting [1]) is 45.4%; on CYP3A4 (setting [4]) it was 35%. For the same compound, the inhibition at 1.5 h, 10 µM on CYP2C9 (setting [2]) came out at 41.5%. The compound also gave an inhibition at 15 min, 10 µM against CYP1A2 of 0%. For the same compound, the inhibition at 1 h, 10 µM at CYP2D6 (setting [3]) turned out to be 19.3%. Moreover, at GPR40 (read-out: EC50), the EC50 was above 300 nM.
In the case of `CC#C[C@@H](CC(=O)O)c1ccc(OCc2cccc(C3=CCC4(CC3)OCCO4)c2)cc1` [Example 7, (3S)-3-(4-(3-(1,4-dioxaspiro[4,5]dec-7-en-8-yl)benzyloxy)phenyl)hex-4-ynoic acid], the inhibition at 30 min, 10 µM on CYP2C19 (setting [1]) was determined as 3.7%; on CYP3A4 (setting [4]) it was 15.5%. The inhibition at 1.5 h, 10 µM at CYP2C9 (setting [2]) was 47.1%. At CYP1A2, this compound gave an inhibition at 15 min, 10 µM of 4.3%. Moreover, the inhibition at 1 h, 10 µM at CYP2D6 (setting [3]) was 13.9%. Also, the EC50 is below 200 nM at GPR40 (read-out: EC50) and below 200 nM on GPR40 (values in text, read-out: EC50, concentration promoting activation of GPR40 protein by 50%).
In the case of `CC#C[C@@H](CC(=O)O)c1ccc(OCc2ccc(CN3CCc4ccccc4C3)cc2)cc1` [Example 21, (S)-3-(4-(4-((3,4-dihydroisoquinoline-2(1H)-yl)methyl)benzyloxy)phenyl)hex-4-ynoic acid], the inhibition at 30 min, 10 µM on CYP2C19 (setting [1]) is 46.5%; at CYP3A4 (setting [4]), 27.3%. The inhibition at 1.5 h, 10 µM at CYP2C9 (setting [2]) was found to be 75.9%. Further, the inhibition at 15 min, 10 µM against CYP1A2 turned out to be 4%. Moreover, the inhibition at 1 h, 10 µM on CYP2D6 (setting [3]) came out at 16.1%. In addition, the EC50 at GPR40 (read-out: EC50) lay within 200 to 300 nM.
Turning to `CC#C[C@@H](CC(=O)O)c1ccc(OCc2ccc(CN3CCC(c4ccccc4)CC3)cc2)cc1` [Example 26, (S)-3-(4-(4-((4-phenylpiperidine-1-yl)methyl)benzyloxy)phenyl)hex-4-ynoic acid], the inhibition at 30 min, 10 µM came to 13.2% on CYP2C19 (setting [1]) and 14.1% on CYP3A4 (setting [4]). Besides, at CYP2C9 (setting [2]), the inhibition at 1.5 h, 10 µM was 31.5%. Also, on CYP1A2, the inhibition at 15 min, 10 µM was found to be 0.7%. The inhibition at 1 h, 10 µM on CYP2D6 (setting [3]) came out at 2.3%. Besides, the EC50 on GPR40 (read-out: EC50) was above 300 nM.
Turning to `CC#C[C@@H](CC(=O)O)c1ccc(OCc2ccc(CN3CCN(c4ccc(OCOC)cc4)CC3)cc2)cc1` [Example 29, (S)-3-(4-(4-((4-(4-(methoxymethoxy)phenyl)piperazine-1-yl)methyl)benzyloxy)phenyl)hex-4-ynoic acid], the inhibition at 30 min, 10 µM at CYP2C19 (setting [1]) is 9.7%; at CYP3A4 (setting [4]), 0%. Further, the inhibition at 1.5 h, 10 µM on CYP2C9 (setting [2]) was found to be 26.7%. Moreover, at CYP1A2, the inhibition at 15 min, 10 µM amounted to 0.7%. In addition, the inhibition at 1 h, 10 µM on CYP2D6 (setting [3]) turned out to be 18.2%. Moreover, the EC50 on GPR40 (read-out: EC50) was in the range of 200 to 300 nM.
In the case of `CC#C[C@@H](CC(=O)O)c1ccc(OCc2ccc(CN3CCN(c4ccc(OCCCS(C)(=O)=O)cc4)CC3)cc2)cc1` [Example 36, (S)-3-(4-(4-((4-(4-(3-(methylsulfonyl)propoxy)phenyl)piperazine-1-yl)methyl)benzyloxy)phenyl)hex-4-ynoic acid], the inhibition at 30 min, 10 µM worked out at 10.8% on CYP2C19 (setting [1]) and 11.5% on CYP3A4 (setting [4]). The inhibition at 1.5 h, 10 µM on CYP2C9 (setting [2]) amounted to 0%. The compound also showed an inhibition at 15 min, 10 µM at CYP1A2 of 16.6%. Also, the inhibition at 1 h, 10 µM at CYP2D6 (setting [3]) came to 1.8%. Further, the EC50 on GPR40 (read-out: EC50) is above 300 nM.
On to `CC#C[C@@H](CC(=O)O)c1ccc(OCc2ccc(CN3Cc4ccccc4C3)cc2)cc1` [Example 38, L-lysine (S)-3-(4-(4-(isoindoline-2-ylmethyl)benzyloxy)phenyl)hex-4-ynoate], for which the values for the inhibition at 30 min, 10 µM at CYP2C19 (setting [5]) and on CYP3A4 (setting [8]) were 13.2% and 18.1%, respectively. Further, the inhibition at 1.5 h, 10 µM at CYP2C9 (setting [6]) came out at 34.4%. Moreover, the inhibition at 15 min, 10 µM against CYP1A2 is 2.2%. In addition, the inhibition at 1 h, 10 µM at CYP2D6 (setting [7]) was determined as 15.6%.
